# The source made the active and inactive calls. The rule behind the calls is not given here.
# Assays:
# Homo sapiens [1] = organism: Homo sapiens; experiment: Binding affinity to DNA STAT3 binding site of PD-L1 promoter region assessed as effect on binding of STAT3 protein to STAT3 binding site of PD-L1 promoter region by competitive electrophoretic mobility shift assay
# MRC5 = experiment: Cytotoxicity against human MRC5 cells at 32 uM by standard CCK-8 assay; type: toxicity, cell-based; conditions: mrc5, 32 µM
# MDA-MB-231 [2] = experiment: Cytotoxicity against human MDA-MB-231 cells incubated for 36 hrs by standard CCK-8 assay; type: functional, cell-based; conditions: for IC50: MDA-MB-231, 36 h; for Activity: dose 2-32 µM
# HCC827 [3] = experiment: (§1) Induction of T-cell mediated cytotoxicity against human HCC827 cells co-cultured with Jurkat cells assessed as apoptotic cells at 8 uM incubated for 36 hrs by standard CCK-8 assay relative to control; type: functional
# dsDNA [4] = experiment: Binding affinity to human wild-type double stranded DNA assessed as thermal stability of compound-DNA complex by measuring change in melting temperature at stoichiometry ratio 1:1 by UV melting assay; type: nucleic-acid assay
# HCC827 [5] = experiment: Cytotoxicity against human HCC827 cells incubated for 36 hrs by standard CCK-8 assay; type: functional, cell-based; conditions: for IC50: HCC827, 36 h; for Activity: dose 2-32 µM
# Jurkat = experiment: Cytotoxicity against human Jurkat cells at 8 uM incubated for 36 hrs by standard CCK-8 assay; type: toxicity, cell-based
# HCC827 [6] = experiment: (§2) Induction of T-cell mediated cell killing in human HCC827 cells co-cultured with PMA-activated Jurkat T cells assessed as IL-2 production at 8 uM by ELISA relative to control; type: functional
# HCC827 [7] = experiment: Antitumour activity against human HCC827 cells assessed as measuring interleukin-2 levels by ELISA; type: functional
# dsDNA [8] = experiment: Binding affinity to human wild-type double stranded DNA assessed as thermal stability of compound-DNA complex by measuring change in melting temperature at stoichiometry ratio 1:0.5 by UV melting assay; type: nucleic-acid assay
# dsDNA [9] = experiment: Binding affinity to human wild-type double stranded DNA assessed as thermal stability of compound-DNA complex by measuring change in melting temperature at stoichiometry ratio 1:4 by UV melting assay; type: nucleic-acid assay
# [10] = Binding affinity to DNA STAT3 binding site of PD-L1 promoter region (unknown origin) by electrophoretic mobility shift assay
# HCC827 [11] = experiment: Inhibition of PD-L1 protein expression in IFNgamma-induced human HCC827 cells measured for 36 hrs by Western blot analysis; type: functional, cell-based; conditions: dose 1.25-10 µM
# [12] = Binding affinity to human single stranded DNA (unknown origin) by electrophoretic mobility shift assay
# MDA-MB-231 [13] = experiment: Antitumour activity against human MDA-MB-231 cells assessed as measuring interleukin-2 levels by ELISA; type: functional
# MDA-MB-231 [14] = experiment: Inhibition of PD-L1 protein expression in IFNgamma-induced human MDA-MB-231 cells measured for 36 hrs by Western blot analysis; type: functional, cell-based; conditions: dose 1.25-10 µM
# MDA-MB-231 [15] = experiment: (§3) Induction of T-cell mediated cell killing in human MDA-MB-231 cells co-cultured with PMA-activated Jurkat T cells assessed as IL-2 production at 8 uM by ELISA relative to control; type: functional
# MDA-MB-231 [16] = experiment: (§4) Induction of T-cell mediated cytotoxicity against human MDA-MB-231 cells co-cultured with Jurkat cells assessed as apoptotic cells at 8 uM incubated for 36 hrs by standard CCK-8 assay relative to control; type: functional
# DNA [17] = experiment: Binding affinity to wild type double stranded DNA (unknown origin) incubated for 24 hrs by Circular Dichroism assay; type: nucleic-acid assay
# MDA-MB-231 [18] = experiment: Inhibition of PD-L1 mRNA expression in IFNgamma-induced human MDA-MB-231 cells measured for 36 hrs by qRT-PCR analysis; type: functional, cell-based; conditions: dose 1.25-10 µM
# dsDNA [19] = experiment: Binding affinity to human mutant double stranded DNA assessed as thermal stability of compound-DNA complex by measuring change in melting temperature at stoichiometry ratio 1:1 by UV melting assay; type: nucleic-acid assay
# [20] = as §1; type: functional
# DNA [21] = experiment: Binding affinity to wild-type double stranded DNA (unknown origin) by assessed as decrease in compound-DNA complex at >=8 uM by competitive electrophoretic mobility shift assay; type: nucleic-acid assay
# [22] = as §2; type: functional
# [23] = Binding affinity to DNA STAT3 binding site of PD-L1 promoter region (unknown origin) assessed as disappearance of band of wild-type double stranded DNA-STAT3 protein complex at > 8 uM by competitive electrophoretic mobility shift assay
# dsDNA [24] = experiment: Binding affinity to human 5'-biotin-double stranded DNA assessed as dissociation rate constant by surface plasmon resonance; type: nucleic-acid assay
# dsDNA [25] = experiment: Binding affinity to human 5'-biotin-double stranded DNA assessed as association rate constant by surface plasmon resonance; type: nucleic-acid assay
# DNA [26] = experiment: Binding affinity to 5'-biotin-double stranded DNA (unknown origin) assessed as interaction with DNA to achieve steady state at 20 nM; type: nucleic-acid assay
# dsDNA [27] = experiment: Binding affinity to human mutant double stranded DNA assessed as thermal stability of compound-DNA complex by measuring melting temperature change in at stoichiometry ratio 1:0.5 by UV melting assay; type: nucleic-acid assay
# MDA-MB-231 [28] = experiment: Antimigratory activity in human MDA-MB-231 cells assessed as inhibition rate at 0.5 to 1 uM measured after 48 hrs by Wound healing assay relative to control; type: functional; design: scale not given: the % may be the effect or the level left; conditions: dose 0.5-1 µM
# MDA-MB-231 [29] = experiment: Antimigratory activity in human MDA-MB-231 cells assessed as inhibition rate at 2 uM measured after 48 hrs by Wound healing assay relative to control; type: functional; design: scale not given: the % may be the effect or the level left
# dsDNA [30] = experiment: Binding affinity to human 5'-biotin-double stranded DNA assessed as dissociation equilibrium constant by surface plasmon resonance; type: nucleic-acid assay
# DNA [31] = experiment: Binding affinity to wild type double stranded DNA (unknown origin) at 1:1 compound to DNA ratio incubated for 24 hrs at 340 nm by Circular Dichroism assay; type: nucleic-acid assay
# HCC827 [32] = experiment: Antimigratory activity in human HCC827 cells assessed as inhibition rate at 0.5 to 1 uM measured after 48 hrs by Wound healing assay relative to control; type: functional; design: scale not given: the % may be the effect or the level left; conditions: dose 0.5-1 µM
# HCC827 [33] = experiment: Antimigratory activity in human HCC827 cells assessed as inhibition rate at 2 uM measured after 48 hrs by Wound healing assay relative to control; type: functional; design: scale not given: the % may be the effect or the level left
# Homo sapiens [34] = organism: Homo sapiens; experiment: Binding affinity to 5'-biotin-double stranded DNA (unknown origin) assessed as saturation of the compound-DNA complex at 350 to 500 nM by surface plasmon resonance; conditions: dose 350-500 nM
# dsDNA [35] = experiment: Binding affinity to human mutant double stranded DNA assessed as thermal stability of compound-DNA complex by measuring melting change in temperature at stoichiometry ratio 1:4 by UV melting assay; type: nucleic-acid assay
# [36] = as §3; type: functional
# HCC827 [37] = experiment: Inhibition of PD-L1 mRNA expression in IFNgamma-induced human HCC827 cells measured for 36 hrs by qRT-PCR analysis; type: functional, cell-based; conditions: dose 1.25-10 µM
# [38] = as §4; type: functional
# HCC827 [39] = experiment: Induction of apoptosis in human HCC827 cells co-cultured with human Jurkat T cells at 8 uM relative to control; type: functional
# MDA-MB-231 [40] = experiment: Induction of apoptosis in human MDA-MB-231 cells co-cultured with human Jurkat T cells at 8 uM relative to control; type: functional
# DNA [41] = experiment: Binding affinity to wild type 28 nucleotide double stranded DNA (unknown origin) in PD-L1 gene promotor region at 1:1 compound to DNA ratio incubated for 24 hrs by Circular Dichroism assay; type: nucleic-acid assay
compound,measurement,setting,value
CC(=O)Nc1cc(C(=O)Nc2cc(C(=O)Nc3cc(C(=O)Nc4cn(C)c(C(=O)NCCC(=O)Nc5cn(C)c(C(=O)NCCCC(=O)Nc6cc(C(=O)Nc7cc(C(=O)NCCC(=O)Nc8cn(C)c(C(=O)Nc9cn(C)c(C(=O)Nc%10cc(C(=O)NCCC(=O)NCCCN(C)C)n(C)c%10)n9)n8)n(C)c7)n(C)c6)n5)n4)n(C)c3)n(C)c2)n(C)c1.Cl,Activity,Homo sapiens [1],inactive
same,Activity,MRC5,Non-Toxic
same,IC50,MDA-MB-231 [2],> 200 µM
same,Activity,MDA-MB-231 [2],inactive
same,Activity,HCC827 [3],inactive
same,ΔTm,dsDNA [4],0.4 °C
same,IC50,HCC827 [5],> 200 µM
same,Activity,HCC827 [5],inactive
same,Activity,Jurkat,Non-Toxic
same,Activity,HCC827 [6],inactive
same,Activity,HCC827 [7],inactive
same,ΔTm,dsDNA [8],0.2 °C
same,ΔTm,dsDNA [9],0.7 °C
same,Activity,[10],inactive
same,inhibition,HCC827 [11],inactive
same,Activity,[12],inactive
same,Activity,MDA-MB-231 [13],inactive
same,inhibition,MDA-MB-231 [14],inactive
same,Activity,MDA-MB-231 [15],inactive
same,Activity,MDA-MB-231 [16],inactive
CC(=O)Nc1cc(C(=O)Nc2cc(C(=O)Nc3cc(C(=O)Nc4cn(C)c(C(=O)Nc5cn(C)c(C(=O)NCCC(=O)Nc6cn(C)c(C(=O)Nc7cc(C(=O)Nc8cc(C(=O)NCCCC(=O)Nc9cc(C(=O)Nc%10cc(C(=O)Nc%11cc(C(=O)NCCC(=O)Nc%12cc(C(=O)Nc%13cc(C(=O)Nc%14cn(C)c(C(=O)Nc%15cc(C(=O)Nc%16cc(C(=O)NCCC(=O)NCCCN(C)C)n(C)c%16)n(C)c%15)n%14)n(C)c%13)n(C)c%12)n(C)c%11)n(C)c%10)n(C)c9)n(C)c8)n(C)c7)n6)n5)n4)n(C)c3)n(C)c2)n(C)c1.Cl,Activity,DNA [17],Active
same,inhibition,MDA-MB-231 [18],Dose-Dependent Effect
same,ΔTm,dsDNA [19],0.3 °C
same,Activity,MRC5,Non-Toxic
same,IC50,MDA-MB-231 [2],21.7 µM
same,Activity,MDA-MB-231 [2],Dose-Dependent Effect
same,Activity,[20],48%
same,ΔTm,dsDNA [4],8.2 °C
same,IC50,HCC827 [5],23.2 µM
same,Activity,HCC827 [5],Dose-Dependent Effect
same,Activity,Jurkat,Non-Toxic
same,Activity,DNA [21],Active
same,Activity,[22],31.41%
same,Activity,HCC827 [7],28.2 pg/mL
same,Activity,[23],Active
same,Kd,dsDNA [24],1.06 10^-2/s
same,Ka,dsDNA [25],1.28 10^6/M/s
same,ΔTm,dsDNA [8],2.7 °C
same,Activity,DNA [26],Active
same,ΔTm,dsDNA [27],0.2 °C
same,ΔTm,dsDNA [9],8.6 °C
same,Activity,MDA-MB-231 [28],50%
same,Activity,MDA-MB-231 [29],>70%
same,inhibition,HCC827 [11],Dose-Dependent Effect
same,Activity,[12],inactive
same,Kd,dsDNA [30],0.00828 µM
same,Activity,DNA [31],Active
same,Activity,HCC827 [32],50%
same,Activity,HCC827 [33],>70%
same,Activity,Homo sapiens [34],Active
same,ΔTm,dsDNA [35],0.6 °C
same,Activity,MDA-MB-231 [13],48.06 pg/mL
same,inhibition,MDA-MB-231 [14],Dose-Dependent Effect
same,Activity,[36],33%
same,inhibition,HCC827 [37],Dose-Dependent Effect
same,Activity,[38],50.73%
same,Activity,HCC827 [39],23.4%
same,Activity,MDA-MB-231 [40],27.76%
same,Activity,DNA [41],Active

# From ChEMBL document CHEMBL5223080, “Discovery of Pyrrole-imidazole Polyamides as PD-L1 Expression Inhibitors and Their Anticancer Activity via Immune and Nonimmune Pathways” (J Med Chem, 2021)
